The record followed here is the kinase profiling compilation of Christmann-Franck et al. (2016).

Targets include MAPK12 (human) (UniProt P53778); MST4 (human) (UniProt Q9P289); STK17A (human) (UniProt Q9UEE5); STK38L (human) (UniProt Q9Y2H1); BRAF (human) (UniProt P15056); ACVR2B (human) (UniProt Q13705); PRKAA2 (human) (UniProt P54646); EPHA8 (human) (UniProt P29322); CDK5 (human) (UniProt Q00535); SRC (human) (UniProt P12931); CSNK2A2 (human) (UniProt P19784); ITK (human) (UniProt Q08881); MERTK (human) (UniProt Q12866); MARK2 (human) (UniProt Q7KZI7); KIT (human) (UniProt P10721); FGR (human) (UniProt P09769); STK17B (human) (UniProt O94768); STK4 (human) (UniProt Q13043); EPHA3 (human) (UniProt P29320); BRSK2 (human) (UniProt Q8IWQ3); YES1 (human) (UniProt P07947); PLK4 (human) (UniProt O00444); STK11 (human) (UniProt Q15831); BTK (human) (UniProt Q06187); ACVR2A (human) (UniProt P27037); CSNK1A1L (human) (UniProt Q8N752); CLK2 (human) (UniProt P49760); STK33 (human) (UniProt Q9BYT3); ABL1 (human) (UniProt P00519); EPHA2 (human) (UniProt P29317); AURKA (human) (UniProt O14965); TNK2 (human) (UniProt Q07912); BLK (human) (UniProt P51451).

Test in all cases: KINOMEscan competition binding
Conditions in all cases: compound 10.0 µM; call rule not given here

Sequence of MAPK12 (human) (P53778 whole entry, looked up): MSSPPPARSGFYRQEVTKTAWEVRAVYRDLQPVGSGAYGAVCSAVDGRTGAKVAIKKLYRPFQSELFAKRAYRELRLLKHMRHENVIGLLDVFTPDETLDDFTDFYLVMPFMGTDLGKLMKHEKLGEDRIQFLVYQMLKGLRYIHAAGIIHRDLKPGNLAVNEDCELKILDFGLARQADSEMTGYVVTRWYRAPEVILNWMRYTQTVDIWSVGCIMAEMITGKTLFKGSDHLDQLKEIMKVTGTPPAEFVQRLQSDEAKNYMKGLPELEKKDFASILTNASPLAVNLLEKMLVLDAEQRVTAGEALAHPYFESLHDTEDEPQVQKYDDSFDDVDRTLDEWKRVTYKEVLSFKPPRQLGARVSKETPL
Sequence of BRAF (human) (P15056 whole entry, looked up): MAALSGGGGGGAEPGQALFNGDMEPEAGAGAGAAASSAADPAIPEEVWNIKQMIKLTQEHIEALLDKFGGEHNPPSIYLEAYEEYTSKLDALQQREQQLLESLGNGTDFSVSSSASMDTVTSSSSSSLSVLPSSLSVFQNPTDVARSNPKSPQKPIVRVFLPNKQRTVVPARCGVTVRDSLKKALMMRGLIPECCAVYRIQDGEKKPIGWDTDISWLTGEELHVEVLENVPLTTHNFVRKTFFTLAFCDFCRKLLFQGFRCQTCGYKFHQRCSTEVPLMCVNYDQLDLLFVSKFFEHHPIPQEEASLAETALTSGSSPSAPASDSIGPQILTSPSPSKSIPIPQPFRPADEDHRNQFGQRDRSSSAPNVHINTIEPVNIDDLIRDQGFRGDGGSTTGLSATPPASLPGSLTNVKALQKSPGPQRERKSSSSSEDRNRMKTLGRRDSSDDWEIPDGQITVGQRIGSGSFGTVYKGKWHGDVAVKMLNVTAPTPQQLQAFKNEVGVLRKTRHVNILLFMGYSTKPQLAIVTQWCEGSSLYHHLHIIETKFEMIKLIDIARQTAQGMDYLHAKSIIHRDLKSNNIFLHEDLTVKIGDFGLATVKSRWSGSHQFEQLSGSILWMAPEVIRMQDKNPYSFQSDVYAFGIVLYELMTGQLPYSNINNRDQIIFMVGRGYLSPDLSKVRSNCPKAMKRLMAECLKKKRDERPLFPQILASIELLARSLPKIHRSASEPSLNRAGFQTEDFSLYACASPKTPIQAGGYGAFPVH
Sequence of EPHA8 (human) (P29322 whole entry, looked up): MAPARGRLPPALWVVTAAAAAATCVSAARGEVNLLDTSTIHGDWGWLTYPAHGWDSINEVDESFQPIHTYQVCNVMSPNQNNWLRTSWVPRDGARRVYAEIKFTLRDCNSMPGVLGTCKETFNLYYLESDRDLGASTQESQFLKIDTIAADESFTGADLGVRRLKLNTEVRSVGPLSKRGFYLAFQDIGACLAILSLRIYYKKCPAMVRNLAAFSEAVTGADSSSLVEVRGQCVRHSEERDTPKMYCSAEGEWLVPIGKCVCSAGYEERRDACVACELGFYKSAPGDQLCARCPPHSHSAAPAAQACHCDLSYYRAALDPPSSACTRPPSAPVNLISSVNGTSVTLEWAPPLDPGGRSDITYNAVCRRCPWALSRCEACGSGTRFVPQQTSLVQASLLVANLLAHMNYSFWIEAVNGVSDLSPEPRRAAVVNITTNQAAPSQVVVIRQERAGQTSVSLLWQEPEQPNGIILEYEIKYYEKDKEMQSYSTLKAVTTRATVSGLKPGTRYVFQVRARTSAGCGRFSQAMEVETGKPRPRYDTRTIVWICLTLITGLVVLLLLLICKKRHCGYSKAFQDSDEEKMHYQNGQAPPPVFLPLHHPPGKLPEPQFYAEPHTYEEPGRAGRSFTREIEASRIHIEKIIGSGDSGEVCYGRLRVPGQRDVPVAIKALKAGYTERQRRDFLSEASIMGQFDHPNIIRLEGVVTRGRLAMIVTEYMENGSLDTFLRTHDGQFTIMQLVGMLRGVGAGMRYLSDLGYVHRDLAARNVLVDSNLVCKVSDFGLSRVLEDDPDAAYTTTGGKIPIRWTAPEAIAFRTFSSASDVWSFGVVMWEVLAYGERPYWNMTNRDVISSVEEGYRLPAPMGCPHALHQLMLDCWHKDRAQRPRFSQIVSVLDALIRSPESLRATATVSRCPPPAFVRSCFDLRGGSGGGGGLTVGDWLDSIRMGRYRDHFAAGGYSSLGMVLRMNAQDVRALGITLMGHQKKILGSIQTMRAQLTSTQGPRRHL
Sequence of ACVR2A (human) (P27037 whole entry, looked up): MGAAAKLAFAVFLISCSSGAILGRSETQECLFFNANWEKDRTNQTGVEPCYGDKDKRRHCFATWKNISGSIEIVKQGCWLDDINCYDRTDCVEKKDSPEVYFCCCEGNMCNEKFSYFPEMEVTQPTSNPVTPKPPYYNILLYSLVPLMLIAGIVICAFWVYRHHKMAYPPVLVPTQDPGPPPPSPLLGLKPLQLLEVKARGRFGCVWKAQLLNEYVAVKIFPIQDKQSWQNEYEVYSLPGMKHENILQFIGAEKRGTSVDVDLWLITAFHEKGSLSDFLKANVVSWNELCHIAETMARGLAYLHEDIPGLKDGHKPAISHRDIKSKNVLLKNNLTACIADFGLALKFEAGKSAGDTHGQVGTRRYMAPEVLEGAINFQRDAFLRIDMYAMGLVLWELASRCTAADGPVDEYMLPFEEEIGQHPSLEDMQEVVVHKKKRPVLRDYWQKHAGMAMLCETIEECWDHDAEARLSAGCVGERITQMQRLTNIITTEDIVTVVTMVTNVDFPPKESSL
Sequence of ACVR2B (human) (Q13705 whole entry, looked up): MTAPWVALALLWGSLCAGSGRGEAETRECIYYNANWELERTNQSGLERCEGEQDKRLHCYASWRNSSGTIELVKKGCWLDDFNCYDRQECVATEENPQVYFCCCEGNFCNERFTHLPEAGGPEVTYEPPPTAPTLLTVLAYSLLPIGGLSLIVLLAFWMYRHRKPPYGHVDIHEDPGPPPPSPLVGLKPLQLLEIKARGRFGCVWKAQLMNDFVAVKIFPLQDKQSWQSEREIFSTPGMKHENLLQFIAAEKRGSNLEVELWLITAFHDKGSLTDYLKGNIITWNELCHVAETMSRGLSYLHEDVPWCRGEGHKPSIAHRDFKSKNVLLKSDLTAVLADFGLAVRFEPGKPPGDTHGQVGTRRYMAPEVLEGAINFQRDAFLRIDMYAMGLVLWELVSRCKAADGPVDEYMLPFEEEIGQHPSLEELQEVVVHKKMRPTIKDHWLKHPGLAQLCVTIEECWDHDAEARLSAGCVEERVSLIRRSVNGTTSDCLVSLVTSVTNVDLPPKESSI
Sequence of FGR (human) (P09769 whole entry, looked up): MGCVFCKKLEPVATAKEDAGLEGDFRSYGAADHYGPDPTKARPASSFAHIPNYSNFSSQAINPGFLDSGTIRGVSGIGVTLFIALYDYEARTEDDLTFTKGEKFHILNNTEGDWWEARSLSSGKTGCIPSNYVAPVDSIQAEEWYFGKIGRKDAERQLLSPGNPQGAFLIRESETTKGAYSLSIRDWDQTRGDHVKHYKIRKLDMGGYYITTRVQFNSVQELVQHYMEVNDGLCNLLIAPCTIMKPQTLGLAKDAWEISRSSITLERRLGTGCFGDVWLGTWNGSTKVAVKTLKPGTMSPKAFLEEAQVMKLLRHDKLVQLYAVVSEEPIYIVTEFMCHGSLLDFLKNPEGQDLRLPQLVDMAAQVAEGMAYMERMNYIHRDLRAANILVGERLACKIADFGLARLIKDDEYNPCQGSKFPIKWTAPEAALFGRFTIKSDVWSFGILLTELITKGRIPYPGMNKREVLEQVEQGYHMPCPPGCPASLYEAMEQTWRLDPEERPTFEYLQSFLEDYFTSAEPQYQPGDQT
Sequence of SRC (human) (P12931 whole entry, looked up): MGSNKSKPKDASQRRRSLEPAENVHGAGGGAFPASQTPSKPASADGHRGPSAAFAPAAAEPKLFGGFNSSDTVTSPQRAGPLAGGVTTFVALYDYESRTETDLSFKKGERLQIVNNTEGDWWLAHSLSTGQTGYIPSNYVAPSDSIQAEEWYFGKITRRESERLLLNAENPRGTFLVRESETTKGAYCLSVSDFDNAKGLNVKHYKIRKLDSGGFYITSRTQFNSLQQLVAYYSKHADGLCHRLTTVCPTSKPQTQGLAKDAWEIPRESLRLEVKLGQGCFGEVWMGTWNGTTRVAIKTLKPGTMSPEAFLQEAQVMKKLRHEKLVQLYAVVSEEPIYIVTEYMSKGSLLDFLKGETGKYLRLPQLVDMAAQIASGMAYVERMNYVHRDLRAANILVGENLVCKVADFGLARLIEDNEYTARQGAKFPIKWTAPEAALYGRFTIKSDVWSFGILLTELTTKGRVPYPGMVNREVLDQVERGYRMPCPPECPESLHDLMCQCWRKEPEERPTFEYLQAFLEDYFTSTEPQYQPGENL
Sequence of CDK5 (human) (Q00535 whole entry, looked up): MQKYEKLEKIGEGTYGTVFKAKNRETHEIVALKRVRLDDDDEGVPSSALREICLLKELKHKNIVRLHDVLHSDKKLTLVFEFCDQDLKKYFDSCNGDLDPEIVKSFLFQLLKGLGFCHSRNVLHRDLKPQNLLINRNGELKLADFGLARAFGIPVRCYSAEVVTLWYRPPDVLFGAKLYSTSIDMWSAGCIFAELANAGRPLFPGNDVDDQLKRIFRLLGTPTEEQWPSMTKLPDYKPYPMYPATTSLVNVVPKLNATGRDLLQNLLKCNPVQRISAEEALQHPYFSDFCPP
Sequence of MST4 (human) (Q9P289 whole entry, looked up): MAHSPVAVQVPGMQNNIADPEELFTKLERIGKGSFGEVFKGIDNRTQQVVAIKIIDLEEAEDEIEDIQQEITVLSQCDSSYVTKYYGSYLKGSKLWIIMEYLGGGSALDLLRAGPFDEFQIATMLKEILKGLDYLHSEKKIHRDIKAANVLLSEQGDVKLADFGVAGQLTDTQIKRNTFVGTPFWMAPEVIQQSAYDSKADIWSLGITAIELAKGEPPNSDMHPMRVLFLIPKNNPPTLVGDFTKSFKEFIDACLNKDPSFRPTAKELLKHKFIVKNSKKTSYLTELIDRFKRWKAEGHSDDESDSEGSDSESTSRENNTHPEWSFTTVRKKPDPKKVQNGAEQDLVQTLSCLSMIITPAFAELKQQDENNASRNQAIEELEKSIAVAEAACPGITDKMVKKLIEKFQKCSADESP

As to `Cc1ccc(O)cc1Nc1ccnc(Nc2cccc(C(N)=O)c2)n1`, the “kinase still bound, per cent of control” value at MAPK12 (human) is “no effect (inactive)”; on MST4 (human) it was “no effect (inactive)”; at STK17A (human), “no effect (inactive)”; on STK38L (human), “no effect (inactive)”; at BRAF (human) it was “no effect (inactive)”; on ACVR2B (human) it was 0%. The “kinase still bound, per cent of control” value at PRKAA2 (human) is “no effect (inactive)”; at EPHA8 (human), 0%; on CDK5 (human), “no effect (inactive)”; on SRC (human), 0%; at CSNK2A2 (human) it was “no effect (inactive)”; on ITK (human), “no effect (inactive)”. Also, the “kinase still bound, per cent of control” value is “no effect (inactive)” at MERTK (human); “no effect (inactive)” at MARK2 (human); 0% at KIT (human); 0% on FGR (human); “no effect (inactive)” at STK17B (human); “no effect (inactive)” on STK4 (human). In addition, the kinase still bound, per cent of control at EPHA3 (human) is 0%; at BRSK2 (human), “no effect (inactive)”; at YES1 (human), 0%.
Take `Cc1cc(Nc2cc(N3CCN(C)CC3)nc(Sc3ccc(NC(=O)C4CC4)cc3)n2)[nH]n1`: the “kinase still bound, per cent of control” value was “no effect (inactive)” on MAPK12 (human); “no effect (inactive)” at MST4 (human); 0% at PLK4 (human); “no effect (inactive)” on STK17A (human); “no effect (inactive)” on BRAF (human); “no effect (inactive)” at ACVR2B (human). Further, the kinase still bound, per cent of control at STK11 (human) was 0%; at BTK (human) it was “no effect (inactive)”; at ACVR2A (human) it was “no effect (inactive)”; on CDK5 (human), “no effect (inactive)”; at STK17B (human) it was “no effect (inactive)”; on CSNK1A1L (human), “no effect (inactive)”. For the same compound, the “kinase still bound, per cent of control” value at CLK2 (human) and on STK33 (human) was “no effect (inactive)” each time.
With `NC(=O)Nc1sc(-c2ccc(F)cc2)cc1C(N)=O`, the “kinase still bound, per cent of control” value on MAPK12 (human) was “no effect (inactive)”; at ABL1 (human), “no effect (inactive)”; on STK11 (human), 0%; at EPHA8 (human), “no effect (inactive)”; at CDK5 (human), “no effect (inactive)”; at STK33 (human), “no effect (inactive)”.
Turning to `N#Cc1ccc(-c2cnc3[nH]cc(NC(=O)c4cccnc4)c3c2)cc1`, the “kinase still bound, per cent of control” value on MAPK12 (human), on MST4 (human), at ABL1 (human), at STK38L (human), at ACVR2B (human) and on PRKAA2 (human) was “no effect (inactive)” throughout. Further, the “kinase still bound, per cent of control” value on BTK (human), at ACVR2A (human), on EPHA8 (human), on EPHA2 (human), on AURKA (human) and at SRC (human) was “no effect (inactive)” in each case. For the same compound, the “kinase still bound, per cent of control” value at CSNK2A2 (human), at ITK (human), on KIT (human), at FGR (human), at CSNK1A1L (human) and at TNK2 (human) was “no effect (inactive)” each time. Also, the “kinase still bound, per cent of control” value at EPHA3 (human), at BRSK2 (human) and on YES1 (human) was “no effect (inactive)” each time.
Take `O=C1Nc2ccccc2/C1=C/c1ccc[nH]1`: the “kinase still bound, per cent of control” value on MAPK12 (human), on BLK (human), on ABL1 (human), at BRAF (human), on ACVR2B (human) and on ACVR2A (human) was “no effect (inactive)” throughout. Moreover, the “kinase still bound, per cent of control” value was “no effect (inactive)” on EPHA8 (human); “no effect (inactive)” on EPHA2 (human); “no effect (inactive)” at SRC (human); 0% at KIT (human); “no effect (inactive)” on FGR (human); “no effect (inactive)” at TNK2 (human). In addition, the “kinase still bound, per cent of control” value on EPHA3 (human) and at YES1 (human) was “no effect (inactive)” throughout.
